Reference: patent US10239887B2, “Positive allosteric modulators of the muscarinic acetylcholine receptor M4” (Vanderbilt University, priority 2016, dated 2019)

Experiments:
[1] = test system: amphetamine-induced hyperlocomotion; test: amphetamine-induced hyperlocomotion in rats; assay type: in vivo, male Sprague-Dawley rats; settings: 10 mg/kg p.o.; rat; 1 mg/kg amphetamine s.c.
Method: d-Amphetamine hemisulfate was obtained from Sigma (St. Louis, Mo.). Salt-correction was used to determine the correct amount of the d-amphetamine hemisulfate form in milligrams to add to sterile water in order to yield a […] solution, which would be dosed at 1 mL/kg body weight of each animal. […] The solutions were formulated so that animals were injected with a volume equal to 10 mL/kg body weight for all compounds. The appropriate amount according to the dosage was mixed in 10% Tween 80 (Sigma) in sterile water. The mixtures were then vortexed and stored in a 39° C. sonication bath for 1 hour, until in a microsuspension (except for the highest dose, which was a suspension).
Male Sprague-Dawley rats weighing 239-300 grams and averaging 265 g (Harlan, Inc., Indianapolis, Ind.) were used. They were housed in the animal care facility certified by the American Association for the Accreditation of Laboratory Animal Care (AALAC) under a 12-hour light/dark cycle (lights on: 6 a.m.; lights off: 6 p.m.) and had free access to food and water. The animals used in this experiment were food-deprived the evening before experimentation for oral dosing of compound/vehicle. The experimental protocols performed during the light cycle were approved by the Institutional Animals Care and Use Committee of Vanderbilt University and conformed to the guidelines established by the National Research Council Guide for the Care and Use of Laboratory Animals.
Male Harlan Sprague Dawley rats were habituated in Smart Open Field locomotor activity test chambers (Hamilton-Kinder, San Diego, Calif.) with 16×16 photo beams to automatically record locomotor activity. […] They were monitored for an additional 30 minutes and then injected subcutaneously with vehicle or 1 mg/kg amphetamine. Animals were then monitored for an additional 60 minutes, for a total of 120 minutes. Data were expressed as changes in ambulation defined as total number of beam breaks per 5 minute interval. Terminal brain and plasma samples were collected at the end of the study for pharmacokinetic analysis.
Behavioral data were analyzed using a two-way ANOVA with main effects of treatment and time. Post hoc analysis was performed using a Dunnett's t-test with all treatment groups compared to the VAMP group using GraphPad Prism V.5.04 (GraphPad Software, San Diego, Calif.). Data were graphed using GraphPad Prism V.5.04 (GraphPad Software, San Diego, Calif.). A probability of p<0.05 was taken as the level of statistical significance. In addition, the total number of beam breaks from the amphetamine administration (65 min) to the end of the study (120 min) was calculated and graphed. Percent Reversal was calculated as follows using Microsoft Excel: In each animal, total ambulation from t=65 to t=120 was summed. The mean of each sum was calculated in the VAMP group. Then, for each animal, Percent Reversal was calculated with the following formula: Percent Reversal=100−{[(total ambulation in each animal from t=65 to t=120)/(mean of each sum from t=65 to t=120 in VAMP group)]*100}. The mean Percent Reversal, as well as the standard error, was calculated for each dose group using GraphPad Prism V5.04.

[2] = biological target: T1, human mAChR M4 (Homo sapiens, UniProt P08173); test: mAChR M4 cell-based functional assay (calcium flux), human M4; settings: for Emax: Human M4, % ACh maximum at 30 μM; for EC50: Human M4 EC50, CHO-K1 hM4-Gqi5 cells, calcium flux, increase in EC20 acetylcholine response
T1 sequence (P08173 1-479): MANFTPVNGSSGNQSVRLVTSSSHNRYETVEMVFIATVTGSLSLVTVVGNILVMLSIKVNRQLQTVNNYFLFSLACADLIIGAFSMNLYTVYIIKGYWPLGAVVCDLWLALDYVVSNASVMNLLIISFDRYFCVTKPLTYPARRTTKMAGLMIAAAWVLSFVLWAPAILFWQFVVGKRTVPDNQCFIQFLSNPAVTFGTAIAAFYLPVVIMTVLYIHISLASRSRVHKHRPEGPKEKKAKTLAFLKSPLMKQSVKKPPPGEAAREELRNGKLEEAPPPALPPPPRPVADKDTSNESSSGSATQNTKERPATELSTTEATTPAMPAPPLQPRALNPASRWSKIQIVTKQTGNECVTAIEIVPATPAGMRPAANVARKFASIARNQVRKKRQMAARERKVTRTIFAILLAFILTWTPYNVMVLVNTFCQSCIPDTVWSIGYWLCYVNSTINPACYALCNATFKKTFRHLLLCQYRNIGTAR

[3] = biological target: T2, rat mAChR M4 (Rattus norvegicus, UniProt P08485); test: mAChR M4 cell-based functional assay (calcium flux), rat M4; design: Emax: dose or concentration left out as unconfirmed; settings: for EC50: read-out: Rat M4 EC50, CHO-K1 rM4-Gqi5 cells, calcium flux, increase in EC20 acetylcholine response
T2 sequence (P08485 1-478): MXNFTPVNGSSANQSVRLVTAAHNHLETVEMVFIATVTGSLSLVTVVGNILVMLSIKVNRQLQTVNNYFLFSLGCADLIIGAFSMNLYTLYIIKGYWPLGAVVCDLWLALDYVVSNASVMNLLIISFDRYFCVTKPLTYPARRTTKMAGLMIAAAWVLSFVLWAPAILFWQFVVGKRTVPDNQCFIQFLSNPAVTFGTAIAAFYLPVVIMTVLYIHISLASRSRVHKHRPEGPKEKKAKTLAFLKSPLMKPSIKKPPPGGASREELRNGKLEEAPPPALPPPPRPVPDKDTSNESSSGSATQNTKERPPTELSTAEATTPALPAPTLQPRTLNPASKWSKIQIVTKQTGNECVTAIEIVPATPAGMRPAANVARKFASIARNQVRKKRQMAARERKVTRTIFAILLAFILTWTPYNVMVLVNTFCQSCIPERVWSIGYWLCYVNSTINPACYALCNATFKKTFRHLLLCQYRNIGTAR

Row | SMILES | percent reversal of amphetamine-induced hyperlocomotion [1] [%] | Emax [2] [%] | Emax [3] [%] | EC50 [3] [nM] | EC50 [2] [nM]
1 | Cc1nnc2sc(C(=O)NCc3ccc(S(=O)(=O)C(F)(F)F)cc3)c(N)c2c1C [VU0467154, reference compound] | 58.9 |  |  |  | 
2 | COCC1CN(c2ncnc3c2sc2nnc(C)c(C)c23)C1 [Compound 14, 8-(3-(methoxymethyl)azetidin-1-yl)-3,4-dimethylpyrimido [4′,5′:4,5]thieno[2,3-c] pyridazine] |  | 62 | 75 |  | 
3 | Cc1cnc2sc3c(N4CCC4)ncnc3c2c1 [Compound 18, 4-(azetidin-1-yl)-8-methylpyrido[3′,2′:4,5] thieno[3,2-d]pyrimidine] |  | 58 | 51 | 2500 | 
4 | Cc1nnc2sc3c(N4CC5(COC5)C4)ncnc3c2c1C [Compound 13, 6-(3,4-dimethylpyrimido [4′,5′:4,5]thieno[2,3-c]pyridazin-8-yl)-2-oxa-6-azaspiro[3.3]heptane] |  | 73 | 86 | 231 | 123
5 | Cc1cnc2sc3c(NC4CN(c5ncc(C(F)(F)F)cn5)C4)ncnc3c2c1 [Compound 17, 8-methyl-N-(1-(5-(trifluoromethyl)pyrimidin-2-yl)azetidin-3-yl)pyrido[3′,2′:4,5] thieno[3,2-d]pyrimidin-4-amine] |  | 32 | 76 | 424 | 
6 | Cc1nnc2sc3c(NC4CCC4)ncnc3c2c1C [Compound 5, N-cyclobutyl-3,4-dimethylpyrimido[4′,5′:4,5] thieno[2,3-c]pyridazin-8-amine] |  | 73 | 80 | 112 | 
7 | Cc1cnc2sc3c(N4CC5(COC5)C4)ncnc3c2c1 [Compound 19, 6-(8-methylpyrido [3′,2′:4,5]thieno[3,2-d]pyrimidin-4-yl)-2-oxa-6-azaspiro[3.3]heptane] |  | 36 | 54 | 1150 | 456
8 | FC(F)(F)c1cnc(N2CC(Nc3ncnc4c3sc3nccnc34)C2)nc1 [Compound 20, N-(1-(5-(trifluoromethyl)pyrimidin-2-yl)azetidin-3-yl)pyrazino[2′,3′:4,5] thieno[3,2-d]pyrimidin-4-amine] |  |  | 46 | 2800 | > 10000
9 | Cc1nnc2sc3c(NC4CCCCC4)ncnc3c2c1C [Compound 2, N-cyclohexyl-3,4-dimethylpyrimido[4′,5′:4,5] thieno[2,3-c] pyridazin-8-amine] |  | 52 | 62 | 836 | 724
